Experimental data from PubChem BioAssay (NCI).
Several values for one entry are separate records, joined by “and”; a condition that tells them apart may be missing. Equal entries are not always repeated.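 These data come from cells grown in 96-well plates and exposed to compound for 48 hours at five concentrations. GI50: concentration for 50% inhibition of growth. The concentration for full growth arrest is given as TGI.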

Key:
Experiment in all cases: inhibition of tumour cell growth, NCI panel, 48 h
CCRF-CEM leukemia = tested on: CCRF-CEM leukemia
DMS 114 small cell lung = tested on: DMS 114 small cell lung
DMS 273 small cell lung = tested on: DMS 273 small cell lung
DU-145 prostate = tested on: DU-145 prostate
HCT-116 colon = tested on: HCT-116 colon
HS 578T breast = tested on: HS 578T breast
KM20L2 colon = tested on: KM20L2 colon
LXFL 529 NSCLC = tested on: LXFL 529 NSCLC
U251 CNS = tested on: U251 CNS
A498 renal = tested on: A498 renal

Structure (SMILES) | GI50 (CCRF-CEM leukemia) | TGI (DMS 114 small cell lung) | TGI (DMS 273 small cell lung) | GI50 (DU-145 prostate) | TGI (DU-145 prostate) | TGI (HCT-116 colon) | TGI (HS 578T breast) | TGI (KM20L2 colon) | TGI (LXFL 529 NSCLC) | TGI (U251 CNS) | TGI (A498 renal) | TGI (CCRF-CEM leukemia) | GI50 (A498 renal) | GI50 (HCT-116 colon) | GI50 (HS 578T breast) | GI50 (U251 CNS)
Nc1ccc2cc3ccc(N)cc3nc2c1 | 1.92 µM | 3.03 µM | 3.33 µM | 1.45 µM | 18.1 µM and 10 µM and 9.47 µM | 10.8 µM [middle of 4 runs] | 6.59 µM and 7.97 µM and 9.65 µM | 6.61 µM | 10.3 µM | 11.4 µM and 10.4 µM and 9.94 µM |  |  |  |  |  | 
O=C1CSC(/C(=N/Nc2ccccc2)c2nc3ccccc3[nH]2)=N1 |  | > 100 µM | 47.3 µM |  |  | > 100 µM |  | > 100 µM | > 100 µM | > 100 µM | > 100 µM | 53.6 µM |  |  |  | 
N#Cc1cccnc1Cl |  | > 100 µM | > 100 µM |  |  | > 100 µM |  | > 100 µM | > 100 µM | > 100 µM | > 100 µM | > 100 µM |  |  |  | 
OCc1ccc(C2CC(c3ccco3)=NN2c2ccccc2)o1 (stereo not drawn) |  | > 100 µM | > 100 µM |  |  | > 100 µM |  | > 100 µM | > 100 µM | > 100 µM |  | > 100 µM |  |  |  | 
COc1ccc(CC2NCCc3cc(OC)c(OC)cc32)cc1Br (stereo not drawn) |  | 52.9 µM | 57.5 µM |  | > 100 µM | 36.9 µM | > 100 µM | > 100 µM | > 100 µM | > 100 µM | > 79.1 µM | > 85.3 µM |  |  |  | 
S=C1OC2CCCC[C@H]2O1 (stereo partly drawn) |  | > 100 µM | > 100 µM |  |  | > 100 µM |  | > 100 µM | > 100 µM | > 100 µM |  | > 100 µM |  |  |  | 
O=C1CCCC[C@H]1[C@H]1CCC[C@@H]([C@H]2CCCCC2=O)C1=O |  |  | > 100 µM |  |  | > 100 µM |  | > 100 µM | > 100 µM | > 100 µM | > 100 µM | > 100 µM |  |  |  | 
C=C1C(=O)OC2/C=C(\COC(C)=O)CCC(OC(C)=O)C3=CC(OC3=O)C12 (stereo not drawn) |  | 3.18 µM | 21.7 µM |  | > 100 µM | 6.85 µM | 52.8 µM | 14.3 µM | 3.56 µM | 33.9 µM | 34.1 µM | 4.63 µM |  |  |  | 
ClCc1cccc(Cn2cnc3nc(Cl)nc(Cl)c32)c1 | 0.31 µM |  |  | 0.141 µM | 0.271 µM | 0.731 µM | 2.51 µM |  |  | 2.38 µM | 2.9 µM | 0.973 µM | 1.52 µM | 0.285 µM | 0.43 µM | 1.1 µM
O=C(NCO)NCOCn1c(=O)n(CO)c(=O)n(CO)c1=O |  | 99.3 µM |  |  |  | 96.2 µM |  | > 94.9 µM | 42.8 µM | > 100 µM | > 100 µM | 23.6 µM |  |  |  | 
O=c1c2ccccc2c(=O)c2c1[nH]c1c(-c3ccccc3)c(-c3ccccc3)c(=O)c12 | 1.46 µM |  |  | 2.71 µM | 9.44 µM | 4.87 µM | 31.1 µM |  |  | 4.9 µM | 7.69 µM | 11 µM | 3.12 µM | 2.31 µM | 5.67 µM | 2.27 µM
